Reference: patent US6608047B2, “Use of low dosage amount of spironolactone for treatment of cardiovascular disease” (Pharmacia Corporation, priority 1995, dated 2003)

How the values were obtained:
plasma aldosterone = details: hypertensive patients; J. Staessen et al 1981; cited from earlier work
[1] = tested on: patients with symptomatic heart failure; assay: Human clinical trial (spironolactone dose-ranging study): cardiac assessments, weight and vital signs; format: in vivo
Source text: (§1) All statistical methods were two-sided.

[2] = tested on: patients with symptomatic heart failure; assay: Human clinical trial (spironolactone dose-ranging study): hyperkalemia, adverse events, hospitalizations, deaths
Source text: as §1
In this analysis, the risk ratio can be thought of as the probability that the patient with the risk factor will develop hyperkalemia, relative to the probability that a patient without the risk factor will develop it.

myocardial fibrosis = details: cited from earlier work
hypertensive-rat cohort = details: spironolactone sub-cutaneously; C.G. Brilla et al 1993; cited from earlier work
[3] = tested on: patients with symptomatic heart failure; assay: Human clinical trial (spironolactone dose-ranging study): clinical laboratory values and neurohormones; details: for Creatinine, Week 12 Mean Change / Hematocrit, Week 12 Mean Change / Hemoglobin, Week 12 Mean Change / N-Terminal ANF, Week 12 Mean Change / PRA, Week 12 Mean Change / Potassium, Week 12 Mean Change / Sodium, Week 12 Mean Change / Urinary aldosterone, Week 12 Mean Change: Week 12 vs baseline

SMILES: C[C@H](CS)C(=O)N1CCC[C@H]1C(=O)O [Captopril, captopril]
- Plasma aldosterone despite continued ACE inhibition (plasma aldosterone): gradual return of plasma aldosterone to baseline levels

SMILES: CC(=O)S[C@@H]1CC2=CC(=O)CC[C@]2(C)[C@H]2CC[C@@]3(C)[C@@H](CC[C@@]34CCC(=O)O4)[C@H]12 [Spironolactone, 17-hydroxy-7α-mercapto-3-oxo-17α-pregn-4-ene-21-carboxylic acid γ-lactone acetate]
- Mean Change in Supine diastolic BP from Baseline to Week 12 ([1]; 12.5 mg/d): −0.19 (9.13)
- Mean Change in Supine pulse from Baseline to Week 12 ([1]; 12.5 mg/d): −3.70 (9.56) BPM
- Mean Change in Supine systolic BP from Baseline to Week 12 ([1]; 12.5 mg/d): 1.84 (11.82)
- Mean Change in Weight from Baseline to Week 12 ([1]; 12.5 mg/d): 0.59 (3.00)
- Mean systolic and diastolic blood pressure (standing and supine) ([1]; 25 mg, 50 mg and 75 mg groups, all visits): decreases in mean systolic and diastolic blood pressure
- Mean Change in Supine diastolic BP from Baseline to Week 12 ([1]; 25 mg/d): −2.74 (9.57)
- Mean Change in Supine pulse from Baseline to Week 12 ([1]; 25 mg/d): −1.40 (10.00) BPM
- Mean Change in Supine systolic BP from Baseline to Week 12 ([1]; 25 mg/d): −4.46 (13.97)
- Mean Change in Weight from Baseline to Week 12 ([1]; 25 mg/d): −0.16 (3.02)
- Mean Change in Supine diastolic BP from Baseline to Week 12 ([1]; 50 mg/d): −5.11 (11.11)
- Mean Change in Supine pulse from Baseline to Week 12 ([1]; 50 mg/d): −3.21 (11.27) BPM
- Mean Change in Supine systolic BP from Baseline to Week 12 ([1]; 50 mg/d): −7.04 (15.83)
- Mean Change in Weight from Baseline to Week 12 ([1]; 50 mg/d): 0.62 (2.05)
- Changes from baseline in body weight ([1]; 75 mg dose group, Day 9 and Week 4): more weight loss than other patients
- Mean Change in Supine diastolic BP from Baseline to Week 12 ([1]; 75 mg/d): −5.91 (9.05)
- Mean Change in Supine pulse from Baseline to Week 12 ([1]; 75 mg/d): −1.07 (13.79) BPM
- Mean Change in Supine systolic BP from Baseline to Week 12 ([1]; 75 mg/d): −5.68 (15.62)
- Mean Change in Weight from Baseline to Week 12 ([1]; 75 mg/d): −0.81 (2.70)
- Sodium retention score, dose response ([1]; Day 9 (p=0.019), not seen at later visits): more reduction in sodium retention score
- Pulse in the supine position, dose response ([1]; Week 4 (p-value=0.045)): greater decreases in pulse in the supine position at higher doses
- Changes in loop diuretic therapy ([1]; Week 8 (p=0.004), higher doses vs placebo, not observed at Week 12): decreases in the loop diuretic dose
- NYHA Class ([1]; spironolactone groups vs placebo, difference not statistically significant): trend toward improvement
- Deaths during the drug treatment period ([2]; all dose groups, 12 weeks): No deaths were reported
- Hyperkalemia incidence, dose-response ([2]; human, in vivo): clear dose-response in term of incidence
- Patients died within 30 days after the study was completed ([2]; previously at the 50 mg dose): Three
- Myocardial fibrosis in animal models (myocardial fibrosis; D. Klug et al 1993): prevents myocardial fibrosis
- Fibrosis in animal models (myocardial fibrosis; irrespective of left ventricular hypertrophy and hypertension, C.G. Brilla et al 1993): prevent fibrosis
- Fibrosis in the hypertensive-rat cohort (hypertensive-rat cohort): prevent fibrosis
- Creatinine, Week 12 Mean Change ([3]; 12.5 mg/d): 6.83 µmol/L
- Hematocrit, Week 12 Mean Change ([3]; 12.5 mg/d): 0.00%
- Hemoglobin, Week 12 Mean Change ([3]; 12.5 mg/d): 0.12 mmol/L/Fe
- N-Terminal ANF, Week 12 Mean Change ([3]; 12.5 mg/d): -287.30 pmol/L
- PRA, Week 12 Mean Change ([3]; 12.5 mg/d): 9.90 NgAngl/L/s
- Potassium, Week 12 Mean Change ([3]; 12.5 mg/d): 0.18 mmol/L
- Sodium, Week 12 Mean Change ([3]; 12.5 mg/d): -1.61 mmol/L
- Urinary aldosterone, Week 12 Mean Change ([3]; 12.5 mg/d): 4.21 nmol/D
- Creatinine, Week 12 Mean Change ([3]; 25 mg/d): 9.30 µmol/L
- Hematocrit, Week 12 Mean Change ([3]; 25 mg/d): −0.02%
- Hemoglobin, Week 12 Mean Change ([3]; 25 mg/d): −0.20 mmol/L/Fe
- N-Terminal ANF, Week 12 Mean Change ([3]; 25 mg/d): -294.60 pmol/L
- PRA, Week 12 Mean Change ([3]; 25 mg/d): 9.33 NgAngl/L/s
- Potassium, Week 12 Mean Change ([3]; 25 mg/d): 0.37 mmol/L
- Sodium, Week 12 Mean Change ([3]; 25 mg/d): -1.85 mmol/L
- Urinary aldosterone, Week 12 Mean Change ([3]; 25 mg/d): 4.27 nmol/D
- Creatinine, Week 12 Mean Change ([3]; 50 mg/d): 14.06 µmol/L
- Hematocrit, Week 12 Mean Change ([3]; 50 mg/d): −0.02%
- Hemoglobin, Week 12 Mean Change ([3]; 50 mg/d): −0.31 mmol/L/Fe
- N-Terminal ANF, Week 12 Mean Change ([3]; 50 mg/d): -351.30 pmol/L
- PRA, Week 12 Mean Change ([3]; 50 mg/d): 13.18 NgAngl/L/s
- Potassium, Week 12 Mean Change ([3]; 50 mg/d): 0.51 mmol/L
- Sodium, Week 12 Mean Change ([3]; 50 mg/d): -2.52 mmol/L
- Urinary aldosterone, Week 12 Mean Change ([3]; 50 mg/d): 8.11 nmol/D
- Creatinine, Week 12 Mean Change ([3]; 75 mg/d): 21.90 µmol/L
- Hematocrit, Week 12 Mean Change ([3]; 75 mg/d): −0.03%
- Hemoglobin, Week 12 Mean Change ([3]; 75 mg/d): −0.46 mmol/L/Fe
- N-Terminal ANF, Week 12 Mean Change ([3]; 75 mg/d): -370.60 pmol/L
- PRA, Week 12 Mean Change ([3]; 75 mg/d): 10.23 NgAngl/L/s
- Potassium, Week 12 Mean Change ([3]; 75 mg/d): 0.58 mmol/L
- Sodium, Week 12 Mean Change ([3]; 75 mg/d): -3.37 mmol/L
- Urinary aldosterone, Week 12 Mean Change ([3]; 75 mg/d): 11.13 nmol/D
- Change from baseline in PRA, dose-response ([3]; Day 9, Week 4 and Week 12, higher doses): greater increases in PRA
- N-Terminal Atrial Natriuretic Factor (ANF), change from baseline ([3]; all active treatments, all treatment visits): decreases from baseline
- Urinary aldosterone excretion, change from baseline ([3]; all treatment groups, 12 week visit): mean increases from baseline
- Change from baseline in serum potassium, dose-response ([3]; all treatment period visits, higher doses): larger increases in potassium
